According to patent US20230192683A1, “FUSED RING COMPOUNDS, PREPARATION METHOD THEREFOR, PHARMACEUTICAL COMPOSITIONS AND USE THEREOF” (priority 2020, published 2023):
Marks after values point to notes of the source that are not given here.

Experiments:
[1] = metabolic stability in pooled human liver microsomes; settings: pooled human liver microsomes, pH 7.4
Experimental: (§1) Metabolic degradation of a test compound was analyzed using pooled human liver microsomes and male rat liver microsomes, respectively, at 37° C.
(§2) After pre-incubation at 37° C. for 5 min, NADPH (5 mM, 60 µL) was added to initiate a reaction. A fixed volume of the reaction mixture (30 µL) was sampled into the solution at fixed time points (0, 5, 15, 30, 60 min) to quench the reaction. After centrifugation (4000 rpm, 15 min), the supernatant (100 µL) was mixed with distilled water (100 µL) and then subjected to LC-MS/MS analysis to test the amount of the compound. A half-life was calculated using a first-order reaction kinetic equation (Ct = C0 × e^-ket, T½ = Ln2/ke).

rat CFA pain model [2] = experiment: single-dose pharmacodynamic study in rat CFA pain model (Von Frey PWT); type: in vivo
human SSTR4 [3] = molecular target: T1, human SSTR4 (Homo sapiens, UniProt P31391); experiment: cell-based human SSTR4 cAMP assay (agonist activity); settings: SSTR4, EC50 (nM), Flp-In-CHO-SSTR4 stable pool, Forskolin-stimulated cAMP
T1 construct: expressed in transfected cells
T1 sequence (P31391 whole entry): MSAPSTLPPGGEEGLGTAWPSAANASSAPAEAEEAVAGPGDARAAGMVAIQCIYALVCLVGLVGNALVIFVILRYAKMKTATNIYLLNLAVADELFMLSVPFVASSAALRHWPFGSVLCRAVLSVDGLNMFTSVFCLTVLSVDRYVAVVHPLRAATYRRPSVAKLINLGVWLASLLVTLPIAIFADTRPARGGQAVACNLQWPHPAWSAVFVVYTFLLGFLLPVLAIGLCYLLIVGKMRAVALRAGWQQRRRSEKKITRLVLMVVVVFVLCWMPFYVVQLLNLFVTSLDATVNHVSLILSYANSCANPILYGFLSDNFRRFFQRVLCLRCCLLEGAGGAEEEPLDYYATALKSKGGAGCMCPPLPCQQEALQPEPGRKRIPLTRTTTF
Experimental: Purpose of test: A cell-based human SSTR4 cAMP assay was used to determine the agonistic effect of the test compound on an SSTR 4 receptor.
Cell culture and reagent preparation: cell line: Flp-In-CHO-SSTR4 stable pool; complete medium: Ham’s F-12 K + 10% FBS + 1 × penicillin-streptomycin (PS) + 600 µg/ml hygromycin B; cell seeding medium: Ham’s F-12K + 10% FBS; assay buffer: 1 × HBSS + 20 mM HEPES + 0.1%BSA + 500 uM IBMX.
The Flp-In-CHO-SSTR 4 stable pool cell line was cultured in a complete medium at 37° C., 5% CO2 until a confluency of 70% to 90%.
After TrypLE digestion, the cells were resuspended in the seeding medium and seeded in a 384-well cell culture plate (384 PE culture plate), with 7,000 cells per well, and were cultured overnight at 37° C., 5% CO2.
The cell culture plate was taken out, inverted at 200 g at room temperature for 5 s to remove the medium, then quickly filled with 15 µl of an experimental buffer to each experimental well, and centrifuged at 200 g at room temperature for 5 s.
2.5 µl of the 8x compound working solution diluted in step 3 was added to corresponding test wells, which were centrifuged at 200 g for 5 s at room temperature, and incubated at 37° C. for 10 min.
A 4 uM Forskolin working solution (8x) was prepared.
The cell plate was taken out and equilibrated to room temperature, then filled with 2.5 µl of the 8x Forskolin working solution prepared in step 6 to corresponding test wells, followed by RT at 200 g for 5 s, and left to stand at 37° C. for 30 min.
A Eu-cAMP tracer and Uliaght-anti-cAMP were freeze-thawed, the Eu-cAMP tracer was diluted 50-fold with a detection buffer, and the Uliaght-anti-cAMP was dilutd 150-fold.
10 µl of the Eu-cAMP tracer was added to all experimental wells, then 10 µl of the detection buffer was added to NC wells, and 10 µl of the Uliaght-anti-cAMP was added to the remaining experimental wells.
The reaction plate was centrifuged at 200 g for 30 s at room temperature, and after standing at 25° C. for 1 h, data was collected using Envision.
Compound EC50 was calculated using a GraphPad nonlinear fitting formula: […]
X: Compound concentration log value; Y: HTRF ratio

human SSTR5 = molecular target: T2, human SSTR5 (Homo sapiens, UniProt P35346); experiment: biochemical; settings: 25° C., 2 hours, Cheng-Prusoff; read-out: Binding Ki (nM) SSTR5
T2 construct: expressed in transfected cells; host or cells: CHO-K1 (membrane homogenates)
T2 sequence (P35346 whole entry): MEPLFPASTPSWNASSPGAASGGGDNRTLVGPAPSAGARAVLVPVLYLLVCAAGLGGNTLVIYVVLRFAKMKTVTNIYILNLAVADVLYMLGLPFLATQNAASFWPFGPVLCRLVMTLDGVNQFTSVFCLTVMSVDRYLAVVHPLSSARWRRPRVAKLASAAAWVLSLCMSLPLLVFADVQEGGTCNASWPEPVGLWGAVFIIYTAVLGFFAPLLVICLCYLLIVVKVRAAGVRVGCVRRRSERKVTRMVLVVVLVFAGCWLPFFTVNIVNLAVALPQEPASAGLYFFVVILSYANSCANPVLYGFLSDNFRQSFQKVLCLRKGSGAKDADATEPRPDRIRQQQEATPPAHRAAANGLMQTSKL
Experimental: (§3) Cell membranes were then filtered and washed, and protein-bound radioactivity was measured with a suitable instrument. The Ki values of corresponding targets were calculated using a Cheng-Prusoff formula.

human SSTR1 = molecular target: T3, human SSTR1 (Homo sapiens, UniProt P30872); experiment: biochemical; settings: 25° C., 2 hours, Cheng-Prusoff; read-out: Binding Ki (nM) SSTR1
T3 construct: expressed in transfected cells; host or cells: CHO-K1 (membrane homogenates)
T3 sequence (P30872 whole entry): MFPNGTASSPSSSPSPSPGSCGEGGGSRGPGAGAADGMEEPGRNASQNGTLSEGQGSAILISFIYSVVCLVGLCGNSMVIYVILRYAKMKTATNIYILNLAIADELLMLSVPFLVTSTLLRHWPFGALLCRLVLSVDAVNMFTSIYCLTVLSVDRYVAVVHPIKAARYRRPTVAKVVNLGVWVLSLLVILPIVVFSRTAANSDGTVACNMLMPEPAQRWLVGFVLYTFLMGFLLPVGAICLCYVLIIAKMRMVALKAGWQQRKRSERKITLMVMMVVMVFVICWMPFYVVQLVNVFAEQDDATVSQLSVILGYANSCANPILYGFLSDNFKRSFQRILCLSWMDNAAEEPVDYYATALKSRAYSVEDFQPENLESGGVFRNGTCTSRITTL
Experimental: as §3

human SSTR3 = molecular target: T4, human SSTR3 (Homo sapiens, UniProt P32745); experiment: biochemical; settings: 25° C., 2 hours, Cheng-Prusoff; read-out: Binding Ki (nM) SSTR3
T4 construct: expressed in transfected cells; host or cells: CHO-K1 (membrane homogenates)
T4 sequence (P32745 whole entry): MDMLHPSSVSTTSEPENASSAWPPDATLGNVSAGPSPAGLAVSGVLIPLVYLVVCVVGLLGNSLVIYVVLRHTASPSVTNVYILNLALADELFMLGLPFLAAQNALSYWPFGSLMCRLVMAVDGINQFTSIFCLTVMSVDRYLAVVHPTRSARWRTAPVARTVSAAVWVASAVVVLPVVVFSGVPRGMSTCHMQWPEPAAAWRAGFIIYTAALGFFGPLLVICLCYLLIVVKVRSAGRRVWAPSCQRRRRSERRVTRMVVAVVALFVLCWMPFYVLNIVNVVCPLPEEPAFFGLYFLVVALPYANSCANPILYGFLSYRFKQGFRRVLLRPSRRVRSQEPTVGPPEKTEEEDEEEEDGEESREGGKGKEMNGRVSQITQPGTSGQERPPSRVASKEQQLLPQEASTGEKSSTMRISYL
Experimental: as §3

rat CFA pain model [4] = experiment: multi-dose oral pharmacodynamic study in rat CFA pain model (Von Frey PWT); type: in vivo
Experimental: The efficacy of Compound 1a and Compound 14 in the rat CFA pain model was evaluated using a mechanical allodynia method.
SD rats, 72 males, divided into 9 groups, were purchased from Beijing Vital River Laboratory Animal Technology Co., Ltd.
The experimental animals were adaptively reared for 3 to 7 days, and 8 of them were selected as a normal control group, and the other animals were injected with 50 µL of CFA in the center of the left hind paw for modeling. 24 hours after injection, the animals were tested for paw withdrawal threshold (PWT) basal values, and were divided into groups according to the basal values, which were solvent control group, indomethacin group, Compound 1a, 10 mpk group, Compound 1a, 30 mpk group, Compound 1a, 100 mpk group, Compound 14, 3 mpk group, Compound 14, 10 mpk group, and Compound 14, 30 mpk group, with 8 animals in each group. Subsequently, the animals were weighed and administered orally according to Table 6. All the animals were tested for paw withdrawal thresholds (PWT) using Von Frey 1, 2, and 4 hours after administration to further evaluate the efficacy of the compounds of the present invention.

[5] = metabolic stability in male rat liver microsomes; settings: rat liver microsomes, pH 7.4
Experimental: as §1, §2

human SSTR4 [6] = molecular target: T1, human SSTR4; experiment: radioligand binding assay, [125I]Somatostatin-14, CHO-K1 membranes
Experimental: as §3

CSc1cccc2c(C(C)(C)NC(=O)[C@H]3[C@@H]4CNC[C@@H]43)nn(C)c12 [Compound 14, (1R,5S,6R)-N-(2-(1-Methyl-7-(Methylthio)-1H-Indazol-3-yl)Prop-2-yl)-3-Azabicyclo[3.1.0]Hexane-6-Carboxamide]
half-life at 1 µM [1]: > 3.11 h
Mechanical allodynia test (PWT (g), mean) Baseline (rat CFA pain model [2]; 10 mg/kg I.P. group, baseline 24 h after CFA, before administration): 3.566 g
Mechanical allodynia test (PWT (g), mean) 1 hour (rat CFA pain model [2]; 10 mg/kg I.P., 1 hour after single administration): 4.628 g
efficacy compared with Control Compound A (in words) (rat CFA pain model [2]; 10 mg/kg I.P., 3 hours after administration): significantly better than that of Control Compound A
Mechanical allodynia test (PWT (g), mean) 3 hours (rat CFA pain model [2]; 10 mg/kg I.P., 3 hours after single administration): 8.886 **** # g
inhibition of CFA-induced mechanical allodynia (in words) (rat CFA pain model [2]; 10 mg/kg I.P., single administration, FIG. 1): inhibited CFA-induced mechanical allodynia
EC50 (human SSTR4 [3]): 0.057 nM
Ki (human SSTR5): > 5650 nM
Ki (human SSTR1): 799 nM
Ki (human SSTR3): > 3420 nM
Paw withdrawal threshold (PWT(g)) (average) 0 hours (rat CFA pain model [4]; 3 mg/kg oral group): 3.118 g
Paw withdrawal threshold (PWT(g)) (average) 1 hour (rat CFA pain model [4]; 3 mg/kg oral): 3.535 g
Paw withdrawal threshold (PWT(g)) (average) 2 hours (rat CFA pain model [4]; 3 mg/kg oral): 5.369 g
Paw withdrawal threshold (PWT(g)) (average) 4 hours (rat CFA pain model [4]; 3 mg/kg oral): 5.335 g
Paw withdrawal threshold (PWT(g)) (average) 0 hours (rat CFA pain model [4]; 10 mg/kg oral group): 3.118 g
Paw withdrawal threshold (PWT(g)) (average) 1 hour (rat CFA pain model [4]; 10 mg/kg oral): 4.155 g
Paw withdrawal threshold (PWT(g)) (average) 2 hours (rat CFA pain model [4]; 10 mg/kg oral): 5.789 g
Paw withdrawal threshold (PWT(g)) (average) 4 hours (rat CFA pain model [4]; 10 mg/kg oral): 7.308 ** g
Paw withdrawal threshold (PWT(g)) (average) 0 hours (rat CFA pain model [4]; 30 mg/kg oral group): 3.079 g
Paw withdrawal threshold (PWT(g)) (average) 1 hour (rat CFA pain model [4]; 30 mg/kg oral): 4.051 g
Paw withdrawal threshold (PWT(g)) (average) 2 hours (rat CFA pain model [4]; 30 mg/kg oral): 5.683 g
Paw withdrawal threshold (PWT(g)) (average) 4 hours (rat CFA pain model [4]; 30 mg/kg oral): 8.213 **** g
inhibition of CFA-induced mechanical hyperalgesia (in words) (rat CFA pain model [4]; oral 3, 10, 30 mg/kg, 4 hours after administration): dose-dependently inhibit
onset dose (rat CFA pain model [4]; oral, inhibition of CFA-induced mechanical hyperalgesia): 10 mg/kg
half-life at 1 µM [5]: > 3.11 h
Ki (human SSTR4 [6]): 0.51 nM
SSTR4 /SSTR 1 (human SSTR4 [6]; ratio of binding Ki values, selectivity): 879.5
